Reference: patent US10654834B2 (Venenum Biodesign, LLC, priority 2016, dated 2020)
Counter-ions that a name gives are not always drawn. One block for each compound: values may come before it.

How the values were obtained:
[1] = target: T1, human TGR5 receptor (Homo sapiens, UniProt Q8TDU6); experiment: Human TGR5 cAMP production assay (hTGR5-CHO cells, DiscoveRx cAMP XS+ kit); assay type: cell-based; conditions: luminescent cAMP assay, read-out: Human TGR5 Lum. cAMP Activity (EC50)
T1 construct: host or cells: CHO-K1 (hTGR5-CHO)
T1 sequence (Q8TDU6 1-330): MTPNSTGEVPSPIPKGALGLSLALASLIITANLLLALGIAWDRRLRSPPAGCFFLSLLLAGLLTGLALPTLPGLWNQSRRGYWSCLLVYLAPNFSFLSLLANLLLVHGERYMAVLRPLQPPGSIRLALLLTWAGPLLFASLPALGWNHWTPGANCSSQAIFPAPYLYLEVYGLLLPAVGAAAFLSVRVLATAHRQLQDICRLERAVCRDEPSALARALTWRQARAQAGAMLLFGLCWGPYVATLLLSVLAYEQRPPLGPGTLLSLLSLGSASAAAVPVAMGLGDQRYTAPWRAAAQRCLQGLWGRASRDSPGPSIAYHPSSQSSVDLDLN
Procedure: Human TGR5 cAMP Production Assay
Compounds of the present invention were evaluated for their ability to induce cAMP production using CHO-K1 cells overexpressing the human TGR5 receptor.
CHO-K1 cells stably expressing human TGR5 receptor (accession number NM_001077194.1) (hTGR5) (i.e., hTGR5-CHO cells) were purchased from DiscoveRx Corporation (Fremont, Calif.). hTGR5-CHO cells were grown in Ham's F-12 media supplemented with 10% Fetal Bovine Serum, 1% Penicillin-Streptomycin, 2 mM L-Alanine L-Glutamine (Glutamax), and 800 μg/mL Geneticin selection. The cAMP production assay was performed using DiscoveRx's cAMP XS+ kit (Catalog No. 90-0075XL) following the manufacturer's recommended protocol. Briefly, hTGR5-CHO cells were harvested using non-enzymatic cell dissociation buffer (Sigma-Aldrich, St. Louis, Mo.) and 1×10^6 cells were combined in Phosphate-Buffered Saline (PBS) to a final volume of 496 μL to which 4 μL of 125 mM IBMX (Sigma-Aldrich, St. Louis, Mo.) was added. 500 μL of cAMP antibody solution was added to the harvested cells and incubated at room temperature for 20 min.
Test compounds were serially diluted (half-log dilutions) in DMSO and then further diluted 1:50 in PBS, 10 mM HEPES buffer. 2 μL of serially diluted compound was added to a 384-well low volume plate (Greiner; cat #784075) and centrifuged briefly. 2 μl of the cell/cAMP antibody mixture was then added to each compound-containing well and allowed to incubate at room temperature for one hour. Following incubation, the XS+ kits' ED/Lysis/CL Substrate Working Solution was prepared following the manufacturer's recommended protocol and 4 μL was added to each well of the plate. The plate was then incubated for one hour at room temperature. Following incubation, 4 μL of Enzyme Acceptor reagent was added to the plate and allowed to incubate overnight at room temperature. Luminescent signal was then detected using the Viewlux instrument (Perkin-Elmer, Waltham, Mass.).
Human and Mouse TGR5 cAMP
(§1) In Table 52, EC50 values for both human and mouse cells were determined according to the TGR5 cAMP assays described above. […]

[2] = target: T2, mouse TGR5 receptor (Mus musculus, UniProt Q80SS6); experiment: Mouse TGR5 HTRF cAMP production assay (HEK293-EBNA cells, Cisbio cAMP HiRange kit); assay type: cell-based; conditions: HEK293-EBNA cells overexpressing mouse TGR5, HTRF cAMP assay
T2 construct: host or cells: HEK293-EBNA (293 c18, ATCC CRL10852)
T2 sequence (Q80SS6 1-329): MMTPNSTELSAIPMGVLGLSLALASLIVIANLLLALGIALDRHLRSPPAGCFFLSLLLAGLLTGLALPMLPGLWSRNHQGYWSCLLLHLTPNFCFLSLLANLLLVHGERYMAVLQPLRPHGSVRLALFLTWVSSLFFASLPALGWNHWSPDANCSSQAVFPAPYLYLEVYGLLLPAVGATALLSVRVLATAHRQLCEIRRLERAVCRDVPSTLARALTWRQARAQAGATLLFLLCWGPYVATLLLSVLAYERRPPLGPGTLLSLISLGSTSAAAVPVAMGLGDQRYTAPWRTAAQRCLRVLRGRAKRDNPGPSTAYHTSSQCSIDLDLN
Procedure: Mouse TGR5 cAMP Production Assay
Compounds of the present invention were evaluated for their ability to induce cAMP production in HEK-EBNA cells overexpressing the mouse TGR5 receptor. Human embryonic kidney cells (HEK293-EBNA) stably expressing mouse TGR5 receptor were established using the following procedure. Specifically, a commercially obtained gene encoding mouse TGR5 (accession number BC116914) from Thermo Scientific (Waltham, Mass.) was cloned into an episomal expression vector. The resulting expression plasmid was then transfected into 293 c18 (ATCC® CRL10852™) cells, which express the Epstein-Barr virus nuclear antigen EBNA1 and can support the replication of episomal vectors. Selection for the plasmid was maintained with Hygromycin B. Cells were cultured and maintained in DMEM (Sigma; cat #6429) supplemented with 10% Fetal Bovine Serum, 1% penicillin/streptomycin, 2 mM L-alanine L-glutamine (GlutaMax), and 250 μg/mL Hygromycin.
We developed two cAMP production assays.
(ii) HTRF cAMP Production Assay
In this second cAMP production assay, the cAMP production was measured in 384-well low volume plates (Greiner; cat #784075) using the Cisbio™ cAMP HiRange HTRF Assay Kit (CisBio) according to the manufacturer's protocol.
Briefly, compounds were initially diluted in 100% DMSO (12-point serial dilution by half logs) in a 96-well plate and then were further diluted 1:50 in PBS containing 10 mM HEPES. 5 μL were transferred to the 384-well assay plate in duplicate. HEK293-EBNA cells stably overexpressing mouse TGR5 were harvested using non-enzymatic cell dissociation buffer (Sigma), spun down, then resuspended in serum-free DMEM with 500 μM IBMX at a density of 500,000 cells/mL. 5 μL of cell suspension was transferred to each well of the 384-well assay plate already containing compound. The plate was covered and incubated at room temperature for 1 hour. The d2-cAMP and anti-cAMP Ab-cryptate stock solutions were prepared as per kit instructions. Then 5 μL of each conjugate (d2 and cryptate) were added to each well of the assay plate. The plate was covered and incubated at room temperature for one (1) hour. The plate was read on an Envision™ plate reader (PerkinElmer).
as §1

Structure (SMILES): N#Cc1ccc(CCNC(=O)[C@@H]2CCCN2c2cc(N3CCC(CCCC(=O)N4CCN(CC(=O)O)CC4)CC3)nc(C(F)(F)F)n2)cc1 [Compound 108, (S)-2-(4-(4-(1-(6-(2-((4-cyanophenethyl)carbamoyl)pyrrolidin-1-yl)-2-(trifluoromethyl)pyrimidin-4-yl)piperidin-4-yl)butanoyl)piperazin-1-yl)acetic acid]
- EC50 [1]: < 100 nM
- EC50 [2]: < 100 nM

Structure (SMILES): N#Cc1ccc(CCNC(=O)[C@@H]2CCCN2c2cc(N3CCC(CCCC(=O)NCCNC(=O)CS(=O)(=O)O)CC3)nc(C(F)(F)F)n2)cc1 [Compound 124, (S)-2-((2-(4-(1-(6-(2-((4-cyanophenethyl)carbamoyl)pyrrolidin-1-yl)-2-(trifluoromethyl)pyrimidin-4-yl)piperidin-4-yl)butanamido)-ethyl)amino)-2-oxoethanesulfonic acid]
- EC50 [1]: < 100 nM
- EC50 [2]: < 100 nM

Structure (SMILES): NCCNC(=O)CCCC1CCN(c2cc(N3CCC[C@H]3C(=O)NCCc3ccc(C(F)(F)F)cc3)nc(C(F)(F)F)n2)CC1 [Compound 90, (S)-1-(6-(4-(4-((2-aminoethyl)amino)-4-oxobutyl)piperidin-1-yl)-2-(trifluoromethyl)pyrimidin-4-yl)-N-(4-(trifluoromethyl)phenethyl)pyrrolidine-2-carboxamide hydrochloride]
- EC50 [1]: < 100 nM
- EC50 [2]: < 100 nM

Structure (SMILES): COCCC1CCN(c2cc(N3CC[C@H]3C(=O)NCCc3ccc(C#N)cc3)nc(C(F)(F)F)n2)CC1 [Compound 225, (S)-N-(4-cyanophenethyl)-1-(6-(4-(2-methoxyethyl)piperidin-1-yl)-2-(trifluoromethyl)pyrimidin-4-yl)azetidine-2-carboxamide]
- EC50 [1]: < 100 nM
- EC50 [2]: < 100 nM

Structure (SMILES): CCOC(=O)CCNC(=O)NCCC1CCN(c2cc(N3CCC[C@H]3C(=O)NCCc3ccc(C#N)cc3)nc(C(F)(F)F)n2)CC1 [Compound 55, (S)-ethyl 3-(3-(2-(1-(6-(2-((4-cyanophenethyl)carbamoyl)pyrrolidin-1-yl)-2-(trifluoromethyl)pyrimidin-4-yl)piperidin-4-yl)ethyl)ureido)propanoate]
- EC50 [1]: < 100 nM
- EC50 [2]: < 100 nM

Structure (SMILES): N#Cc1ccc(CCNC(=O)[C@@H]2CCCN2c2cc(-c3ccc(CCC(=O)O)cc3)cc(C(F)(F)F)n2)cc1 [Compound 205, (S)-3-(4-(2-(2-((4-cyanophenethyl)carbamoyl)pyrrolidin-1-yl)-6-(trifluoromethyl)pyridin-4-yl)phenyl)propanoic acid]
- EC50 [1]: < 100 nM
- EC50 [2]: < 100 nM

More lines, now with the values ahead:

- EC50 [1]: < 100 nM
- EC50 [2]: < 100 nM
Structure (SMILES): N#Cc1ccccc1CCNC(=O)[C@@H]1CCCN1c1cc(N2CCC(CCCC(=O)NCS(=O)(=O)O)CC2)nc(C(F)(F)F)n1 [Compound 366, (S)-(4-(1-(6-(2-((2-cyanophenethyl)carbamoyl)pyrrolidin-1-yl)-2-(trifluoromethyl)pyrimidin-4-yl)piperidin-4-yl)butanamido)methanesulfonic acid]

- EC50 [1]: 100 to 999 nM
- EC50 [2]: < 100 nM
Structure (SMILES): COC(=O)c1ccc(S(=O)(=O)NCCOCCNC(=O)CCCC2CCN(c3cc(N4CC[C@H]4C(=O)NCCc4ccc(C#N)cc4)nc(C(F)(F)F)n3)CC2)cc1 [Compound 290, (S)-methyl 4-(N-(2-(2-(4-(1-(6-(2-((4-cyanophenethyl)carbamoyl)azetidin-1-yl)-2-(trifluoromethyl)pyrimidin-4-yl)piperidin-4-yl)butanamido)ethoxy)ethyl)-sulfamoyl)benzoate]

- EC50 [1]: 100 to 999 nM
- EC50 [2]: < 100 nM
Structure (SMILES): N#Cc1ccc(CCNC(=O)[C@@H]2CCN2c2cc(N3CCC(CCCC(=O)NCCOCCNS(=O)(=O)c4ccc(C(=O)O)cc4)CC3)nc(C(F)(F)F)n2)cc1 [Compound 291, (S)-4-(N-(2-(2-(4-(1-(6-(2-((4-cyanophenethyl)carbamoyl)azetidin-1-yl)-2-(trifluoromethyl)pyrimidin-4-yl)piperidin-4-yl)butanamido)ethoxy)ethyl)sulfamoyl)-benzoic acid]

- EC50 [1]: 1000 to 30000 nM
- EC50 [2]: 1000 to 30000 nM
Structure (SMILES): CN(C)[C@@H]1C[C@@H](C(=O)NCCc2ccc(C(F)(F)F)cc2)N(c2cc(N3CCC(CCNC(=O)NCCC(=O)O)CC3)nc(C(F)(F)F)n2)C1 [Compound 352, 3-(3-(2-(1-(6-((2S,4R)-4-(dimethylamino)-2-((4-(trifluoromethyl)phenethyl)carbamoyl)pyrrolidin-1-yl)-2-(trifluoromethyl)pyrimidin-4-yl)piperidin-4-yl)ethyl)ureido)propanoic acid]

- EC50 [1]: 1000 to 30000 nM
- EC50 [2]: 1000 to 30000 nM
Structure (SMILES): O=C(O)CCNC(=O)NCCC1CCN(c2cc(N3CCC[C@H]3C(=O)NCCc3ccc(-c4ccccn4)cc3)nc(C(F)(F)F)n2)CC1 [Compound 378, (S)-3-(3-(2-(1-(6-(2-((4-(pyridin-2-yl)phenethyl)carbamoyl)pyrrolidin-1-yl)-2-(trifluoromethyl)pyrimidin-4-yl)piperidin-4-yl)ethyl)ureido)propanoic acid]

- EC50 [1]: 100 to 999 nM
- EC50 [2]: 100 to 999 nM
Structure (SMILES): O=C(O)CCNC(=O)NCCC1CCN(c2cc(N3CCC[C@H]3C(=O)NCCc3ccc(-c4cccnc4)cc3)nc(C(F)(F)F)n2)CC1 [Compound 377, (S)-3-(3-(2-(1-(6-(2-((4-(pyridin-3-yl)phenethyl)carbamoyl)pyrrolidin-1-yl)-2-(trifluoromethyl)pyrimidin-4-yl)piperidin-4-yl)ethyl)ureido)propanoic acid]

- EC50 [1]: 100 to 999 nM
- EC50 [2]: < 100 nM
Structure (SMILES): O=C(CCCC1CCN(c2cc(N3CCC[C@@H](C(=O)NCCc4ccc(C(F)(F)F)cc4)C3)nc(C(F)(F)F)n2)CC1)NCCS(=O)(=O)O [Compound 336, (R)-2-(4-(1-(2-(trifluoromethyl)-6-(3-((4-(trifluoromethyl)phenethyl)carbamoyl)-piperidin-1-yl)pyrimidin-4-yl)piperidin-4-yl)butanamido)ethanesulfonic acid]

- EC50 [1]: 100 to 999 nM
- EC50 [2]: 100 to 999 nM
Structure (SMILES): O=C(CCCC1CCN(c2cc(N3CCC[C@H]3C(=O)NCCc3ccccc3)nc(C(F)(F)F)n2)CC1)NCS(=O)(=O)O [Compound 365, (S)-(4-(1-(6-(2-(phenethylcarbamoyl)pyrrolidin-1-yl)-2-(trifluoromethyl)pyrimidin-4-yl)piperidin-4-yl)butanamido)methanesulfonic acid]
